Here are results for four compounds from US8993604B2, “Treatment and prevention of dengue virus infections” (Siga Technologies, Inc., priority 2009, dated 2015).

The test system of data set [1] is all four serotypes of dengue. Kind of data set: Yield assays against each of the four serotypes of dengue. It counts as cell-based, dengue virus. As to conditions: yield assays at several drug concentrations. Here is the method: Initially, the chemical structures of the hit compounds were examined for chemical tractability. […] Hits that passed this medicinal chemistry filter were evaluated for their potency. Compound potency was determined by evaluating inhibitory activity across a broad range of concentrations. Nonlinear regression was used to generate best-fit inhibition curves and to calculate the 50% effective concentration (EC50). The selectivity or specificity of a given compound is typically expressed as a ratio of its cytotoxicity to its biological effect. A cell proliferation assay is used to calculate a 50% cytotoxicity concentration (CC50); the ratio of this value to the EC50 is referred to as the therapeutic index (T.I.=CC50/EC50). Two types of assays have been used to determine cytotoxicity, both of which are standard methods for quantitating the reductase activity produced in metabolically active cells (22). […] Verification that these compounds act against each of the four serotypes of dengue was done with yield assays carried out at several drug concentrations, and the titer determined for each.
Compounds that were active in the primary screen were tested for activity in viral yield assays. […] The EC50 was calculated through ExcelFit. Activities against other serotypes of dengue virus were determined in a similar way.

In data set [2] the test system is Dengue-2 (Strain New Guinea C). Briefly: Viral yield assay in Vero cells. As to conditions: Dengue virus, read-out: Activity (anti-dengue 2 viral activity, EC50 class). It counts as cell-based. Summed up: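 Vero cells were infected with dengue virus at an MOI of 0.1, treated with compound or DMSO vehicle, and kept at 37° C. Supernatant virus was harvested 48 hours post infection and titered on Vero cells, with EC50 derived from yield reduction.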

Data set [3] concerns dengue. As to conditions: mouse model; cited from earlier work.
The subject of data set [4] is dengue. As to conditions: cited from earlier work.

SMILES strings stand for the structures. pEC50: −log10 of the molar value. Read-outs that look alike come from different tables or passages of the source.

For the compound `COc1ccc(C(=O)Nc2ccc(-c3nc4ccc(C)cc4s3)cc2)c(OC)c1` [Compound 3, 2,4-Dimethoxy-N-[4-(6-methyl-benzothiazol-2-yl)-phenyl]-benzamide], the “activity against all four serotypes of dengue” value in data set [1] is on record as “activity against all four serotypes of dengue”. Moreover, the pEC50 in data set [2] (Vero cells, MOI 0.1, harvested 48 hours post infection) was greater than 6.00.

As to `Cc1c(NC(=O)c2cc(-n3cnnc3)ccc2Cl)cccc1-c1nc2ccccc2s1` [Compound 125, N-(3-Benzothiazol-2-yl-2-methyl-phenyl)-2-chloro-5-[1,2,4]triazol-4-yl-benzamide], in data set [2] (Vero, 48 h), the pEC50 was less than 4.60.

Consider `Cc1ccc2nc(-c3ccc(NC(=O)c4ccccc4C(=O)O)cc3)sc2c1` [Compound 126, N-[4-(6-Methyl-benzothiazol-2-yl)-phenyl]-phthalamic acid], for which the negative logarithm of the EC50 (pEC50) in data set [2] (Vero, 48 h) is less than 4.60.

For the compound `NC(=O)c1ncn([C@@H]2O[C@H](CO)[C@@H](O)[C@H]2O)n1` [ribavirin], the protection against dengue result in data set [3] and in data set [4] (rhesus monkey model) was “did not show protection” throughout. Moreover, the adverse effects induced entry in data set [4] (animal models of refs. 14, 16, model not specified) was “induced anemia and thrombocytosis”.
